# According to patent US6630464B1, “Cyclin dependent kinase (CDK)4 inhibitors and their use for treating cancer” (The United States of America as represented by the …, priority 1997, dated 2003):
# Like-named read-outs stand apart in the source and are kept apart here.
# Key:
# [1] = biological target: CDK4:cyclin D1 (Homo sapiens, UniProt P11802); assay: In vitro kinase assay, CDK4:cyclin D1, GST-Rb substrate; conditions: for CDK4 kinase inhibitory potency compared with parent compounds: parents 3-ATA and Compound 6
# Chain of CDK4:cyclin D1 (P11802 whole entry): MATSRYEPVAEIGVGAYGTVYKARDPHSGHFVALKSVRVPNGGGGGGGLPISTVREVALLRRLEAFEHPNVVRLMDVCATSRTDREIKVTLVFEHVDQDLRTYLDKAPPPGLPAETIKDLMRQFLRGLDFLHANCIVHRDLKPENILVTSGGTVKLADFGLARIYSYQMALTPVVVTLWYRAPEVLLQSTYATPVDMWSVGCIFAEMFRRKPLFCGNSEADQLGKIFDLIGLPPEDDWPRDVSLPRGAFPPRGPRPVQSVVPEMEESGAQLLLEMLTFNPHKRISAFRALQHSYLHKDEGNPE
# Chain of CDK4:cyclin D1 (P24385 whole entry partner): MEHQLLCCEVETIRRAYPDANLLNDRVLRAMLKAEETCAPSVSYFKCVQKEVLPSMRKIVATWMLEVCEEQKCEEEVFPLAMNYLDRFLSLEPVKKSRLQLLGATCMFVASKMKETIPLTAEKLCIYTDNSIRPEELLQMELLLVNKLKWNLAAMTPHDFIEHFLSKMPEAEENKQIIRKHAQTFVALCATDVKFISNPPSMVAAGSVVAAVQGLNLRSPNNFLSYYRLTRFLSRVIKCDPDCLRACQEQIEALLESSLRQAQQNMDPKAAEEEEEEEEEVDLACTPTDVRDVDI
# Experimental: In vitro kinase assay. Seventy-two hours after infection of 1×10^7 Sf9 cells with baculovirus containing a human CDK gene and/or a cyclin gene, cells were lysed in 250 μl of lysis buffer [50 mM HEPES (pH 7.5), 10 mM MgCl2, 1 mM DTT, 5 ig/ml of aprotinin, 5 μg/ml of leupeptin, 0.1 mM NaF, 0.2 mM phenylmethylsulfonyl fluoride (PMSF), and 0.1 mM sodium orthovanadate], centrifuged, and lysates stored at −70° C. Five microliters of CDK:cyclin lysate were mixed with test compounds in 40 μl of kinase buffer (200 mM Tris-HCl, pH 8.0, 100 mM MgCl2, 10 mM EGTA) and incubated at 30° C. for 30 min. About 400 ng of purified GST-Rb fusion protein and 5 μCi of γ-[^32P]ATP were added to the mixture and incubated at 30° C. for 15 min. Reactions were stopped by the addition of 250 μl of IP buffer (50 mM Tris-HCl, pH 8.0; 150 mM NaCl, 0.5% NP-40) and 15 μl glutathione sepharose. After one hour incubation at 4° C., sepharose beads were washed four times with IP buffer, mixed with 18 μl of 2×sample buffer and electrophoresed on an 8% Tris-glycine gel (Novex, San Diego, Calif.) at 125 V for 90 min. Equal recovery of GST-Rb fusion protein was confirmed by Coomassie blue staining prior to autoradiography.
# These compounds were assessed for CDK4:cylin D kinase inhibitory activity using baculovirus-expressed human CDK4 and cyclin D1, and a GST-Rb fusion protein as substrate.
# [2] = biological target: T1, CDK4 (Homo sapiens, UniProt P11802); assay: CDK4 binding assay (GST-p16 binding to CDK4)
# T1 construct: made in house; host or cells: CDK4 and cyclin D1: Sf9 cells, baculovirus, [35S]methionine-labelled cleared lysate; GST-p16: E. coli DH5α
# T1 sequence (P11802 whole entry): as the sequence (P11802 whole entry) above
# Experimental: CDK4 binding assay. Sf9 cells (1×10^7) were co-infected with baculovirus containing a cloned human CDK4 gene and/or a cyclin D1 gene in 12.5 ml of Grace's insect medium (Paragon, Baltimore, Md.) containing 10% FBS. After 40 h, cells were washed and placed in 5 ml of methionine-free medium containing 200 μCi/ml of [^35S]methionine (1000 Ci/mmole) for 4 h, followed by lysis in 250 μl. Cleared cell lysate (10 μl) was incubated with 400 ng of wildtype or mutant GST-p16 fusion proteins using the same conditions as the in vitro kinase assay. […] The gel was stained using Coomassie blue, dried, and autoradiography was performed. […] To test the effect of compounds on p16 binding to CDK4, 100 μM of each compound was incubated with CDK4:cyclin D1 lysate for 30 min prior to adding GST-p16 fusion protein.
# [3] = biological target: T2, CDK2:cyclin E (Homo sapiens, UniProt P24941); assay: In vitro kinase assay, CDK2:cyclin E; format: biochemical; conditions: for Ratio CDK2/E:CDK4: IC50 ratio, CDK4 as denominator
# T2 construct: made in house; host or cells: Sf9 insect cells, baculovirus; unpurified lysate
# Description: (§1) Characterization of 3-ATA. To examine the specificity of 3-ATA inhibitory activity for CDK4:cyclin D1 kinase, we performed in vitro kinase assays using baculovirus-expressed human CDC2:cyclin A, CDK2:cyclin A, and CDK2:cyclin E complexes.
# [4] = biological target: T3, CDK2:cyclin A (Homo sapiens, UniProt P24941); assay: In vitro kinase assay, CDK2:cyclin A; format: biochemical; conditions: for Ratio CDK2/A:CDK4: IC50 ratio, CDK4 as denominator
# T3 construct: made in house; host or cells: Sf9 insect cells, baculovirus; unpurified lysate
# Description: as §1
# [5] = biological target: T4, CDC2:cyclin A (Homo sapiens, UniProt P06493); assay: In vitro kinase assay, CDC2:cyclin A; format: biochemical; conditions: for Ratio CDC2A:CDK4: (IC50 CDC2)/(IC50 CDK4)
# T4 construct: made in house; host or cells: Sf9 insect cells, baculovirus; unpurified lysate
# Description: as §1
SMILES,IC50 [3] [µM],Ratio CDK2/E:CDK4 [3],IC50 [1] [µM],IC50 [4] [µM],Ratio CDK2/A:CDK4 [4],IC50 [5] [µM],also measured
"CCC/C=C/C=C/C(=O)O[C@H]1/C(=C/C(=O)OC)C[C@H]2C[C@H]([C@@H](C)O)OC(=O)C[C@H](O)C[C@@H]3C[C@H](OC(C)=O)C(C)(C)[C@](O)(C[C@@H]4C/C(=C/C(=O)OC)C[C@H](/C=C/C(C)(C)[C@]1(O)O2)O4)O3 [Bryostatin 1, reference compound]",,,,,,,Inhibition of GST-Rb phosphorylation by CDK4:cyclin D1 ([1]; concentrations up to 100 μM): no inhibitory activity
"Nc1ccc2c(=S)c3ccccc3[nH]c2c1 [Compound 3, 3-Amino-10H-acridine-9-thione]",80,11.8,6.8,> 100,>14.7,60,Decrease of binding of CDK4 to normal p16 ([2]; 100 μM compound): 70%; Ratio CDK2/E:CDK4 ([3]; listed as 3-ATA): at least nine-fold higher; Effect of exogenous ATP on inhibitory activity in CDK4 kinase assay ([1]; exogenous ATP 0 to 600 μM): did not alter the inhibitory activity; Ratio CDK2/A:CDK4 ([4]; listed as 3-ATA): at least nine-fold higher; Ratio CDC2A:CDK4 [5]: 8.8; Ratio CDC2A:CDK4 ([5]; listed as 3-ATA): at least nine-fold higher
"COc1ccc(OC)c2c(=S)c3ccccc3[nH]c12 [Compound 4, 1,4-Dimethoxy-10H-acridine-9-thione]",> 100,>45,2.2,> 100,>45,> 100,Inhibition of p16INK4A binding to CDK4 ([2]; 100 μM of each compound): did not inhibit; CDK2 kinase inhibitory activity (CDK2:cyclin E) ([3]; concentrations up to 100 μM): no CDC2 or CDK2 kinase inhibitory activity; CDK4 kinase inhibitory potency compared with parent compounds [1]: more potent CDK4 kinase inhibitors than the parent compounds; CDK2 kinase inhibitory activity (CDK2:cyclin A) ([4]; concentrations up to 100 μM): no CDC2 or CDK2 kinase inhibitory activity; Ratio CDC2A:CDK4 [5]: >45; CDC2 kinase inhibitory activity ([5]; concentrations up to 100 μM): no CDC2 or CDK2 kinase inhibitory activity
"O=C(CNc1ccc2c(=S)c3ccccc3[nH]c2c1)Nc1ccccc1-c1ccccc1NC(=O)CNc1ccc2c(=S)c3ccccc3[nH]c2c1 [Compound 5, 2,2′-Biphenyldiamine, bis[N,N′-[3-(amidonmethylamino)-10H-acridine-9-thione]]]",> 100,>91,1.1,> 100,>91,70,CDK4 kinase inhibitory potency compared with parent compounds [1]: more potent CDK4 kinase inhibitors than the parent compounds
"O=S1(=O)NN=C(NCc2ccc(F)cc2)c2ccccc21 [Compound 6, 4-(4-Fluorobenzylamino)-1,2,3-benzothiadiazine-1,1-dioxide]",> 100,,5,> 100,,> 100,
O=S1(=O)NNC(=NCc2ccc(Cl)c(Cl)c2)c2ccccc21 [NSC 645788],,,,,,,IC50 ([1]; read-out: IC50 value CDK4/D1): 17 µM
"C[C@@H]1[C@]2(O[C@H]3C=C4[C@@H]5CC[C@H]6Cc7nc8c(nc7C[C@]6(C)[C@H]5C[C@@H](O)[C@]4(C)[C@]31O)C[C@@H]1CC[C@H]3C4=CC[C@@H]5[C@H](C)[C@@]6(OC[C@]45C(=O)C[C@@H]3[C@@]1(C)C8)OC(C)(C)C[C@H]6O)O[C@](C)(CO)C[C@H]2O [cephalostatin 1, reference compound]",,,,,,,IC50 ([1]; read-out: IC50 value CDK4/D1): 20 µM
